In this assay the test system is P388 leukemia ip, CD2F1 mice, survival T/C. The assay is described as follows: NCI In Vivo Anticancer Drug Screen. Data for tumor model P388 Leukemia (intraperitoneal) in CD2F1 (CDF1) mice. The following applies: endpoint: median survival time, higher = longer survival. Put shortly: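 Mice carrying the transplanted tumor received test compound or vehicle. Survival was recorded in each group, and the value is the treated-group measurement divided by that of the vehicle-treated control group.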

The mark [1] stands for this setting: dose: 50.0 mg/kg/injection, schedule: Q01DX005 (ip), vehicle: Klucel (hydroxypropylcellulose) (HPC).
The mark [2] stands for this setting: dose: 100.0 mg/kg/injection, schedule: Q01DX005 (ip), vehicle: Klucel (hydroxypropylcellulose) (HPC).
[3] abbreviates: dose: 200.0 mg/kg/injection, schedule: Q01DX005 (ip), vehicle: Klucel (hydroxypropylcellulose) (HPC).
[4] abbreviates: dose: 50.0 mg/kg/injection, schedule: Q01DX009 (ip), vehicle: saline with Tween-80.
[5] abbreviates: dose: 100.0 mg/kg/injection, schedule: Q01DX009 (ip), vehicle: saline with Tween-80.
[6] abbreviates: dose: 60.0 mg/kg/injection, schedule: Q01DX005 (ip), vehicle: saline with Tween-80.
Setting [7] is: dose: 120.0 mg/kg/injection, schedule: Q01DX005 (ip), vehicle: saline with Tween-80.
[8] abbreviates: dose: 240.0 mg/kg/injection, schedule: Q01DX005 (ip), vehicle: saline with Tween-80.
Where [9] appears, read: dose: 50.0 mg/kg/injection, schedule: Q01DX009 (ip), vehicle: Klucel (hydroxypropylcellulose) (HPC).
Where [10] appears, read: dose: 100.0 mg/kg/injection, schedule: Q01DX009 (ip), vehicle: Klucel (hydroxypropylcellulose) (HPC).
The mark [11] stands for this setting: dose: 50.0 mg/kg/injection, schedule: Q01DX005 (ip), vehicle: saline with Tween-80.
Where [12] appears, read: dose: 100.0 mg/kg/injection, schedule: Q01DX005 (ip), vehicle: saline with Tween-80.
Where [13] appears, read: dose: 200.0 mg/kg/injection, schedule: Q01DX005 (ip), vehicle: saline with Tween-80.

These results are taken from PubChem BioAssay AID330 (DTP/NCI, 2004).

“And” between values parts separate entries of the source, which are not always exact repeats. Equal entries are not always repeated. Toxic doses and inconclusive results are not listed.

As for `CCCCOc1ccc(C(C)c2cc3c(cc2OCC)OCO3)cc1` (stereo not drawn), the T/C is 103 % of control (dose: 25.0 mg/kg/injection, schedule: Q01DX005 (ip), vehicle: Klucel (hydroxypropylcellulose) (HPC)); 103 % of control under setting [1]; 100 % of control under setting [2]; 104 % of control under setting [3].

As to `COC(=O)c1ccnc(-c2cc(C(=O)OC)ccn2)c1`, the T/C is 99 % of control (dose: 50.0 mg/kg/injection, schedule: Q01DX009 (ip), vehicle: saline); 93 % of control (dose: 100.0 mg/kg/injection, schedule: Q01DX009 (ip), vehicle: saline); 92 % of control (dose: 200.0 mg/kg/injection, schedule: Q01DX009 (ip), vehicle: saline).

As for `COc1cc(-c2ccc(NC(=O)Nc3nccs3)c(OC)c2)ccc1NC(=O)Nc1nccs1`, the T/C by setting is: under setting [4], 95 % of control; under setting [5], 98 % of control; (dose: 200.0 mg/kg/injection, schedule: Q01DX009 (ip), vehicle: saline with Tween-80) 96 % of control.

For the compound `CCC(/C=C/c1ccccc1)=N\NC(=O)c1ccc(Cl)c(Cl)c1`, the T/C by setting is: under setting [6], 88 % of control and 89 % of control; under setting [7], 88 % of control; under setting [8], 92 % of control and 97 % of control.

On to `COC(=O)C1CC(C)N1C(C)C` (stereo not drawn), for which the T/C by setting is: (dose: 50.0 mg/kg/injection, schedule: Q01DX005 (ip), vehicle: saline) 95 % of control; (dose: 100.0 mg/kg/injection, schedule: Q01DX005 (ip), vehicle: saline) 97 % of control; (dose: 200.0 mg/kg/injection, schedule: Q01DX005 (ip), vehicle: saline) 100 % of control.

With `Cn1c(=O)c2c(ncn2-c2ccc(N)cc2Cl)n(C)c1=O`, the T/C reads like this: (dose: 25.0 mg/kg/injection, schedule: Q01DX005 (ip), vehicle: distilled water + alcohol) 100 % of control; (dose: 50.0 mg/kg/injection, schedule: Q01DX005 (ip), vehicle: distilled water + alcohol) 100 % of control and 101 % of control; (dose: 100.0 mg/kg/injection, schedule: Q01DX005 (ip), vehicle: distilled water + alcohol) 104 % of control; (dose: 200.0 mg/kg/injection, schedule: Q01DX005 (ip), vehicle: distilled water + alcohol) 99 % of control.

For the compound `COc1cc(-c2oc3c(OC)cc(OC)c(O)c3c(=O)c2OC)cc(OC)c1OC`, the T/C was 96 % of control (dose: 100.0 mg/kg/injection, schedule: Q04DX002 (ip), vehicle: saline with Tween-80); 105 % of control (dose: 200.0 mg/kg/injection, schedule: Q04DX002 (ip), vehicle: saline with Tween-80); 96 % of control (dose: 400.0 mg/kg/injection, schedule: Q04DX002 (ip), vehicle: saline with Tween-80).

For `O=C1NC2(CCCC2)C(=O)N1CCCN(CCCl)CCCl`, the T/C is, setting by setting: (dose: 1.5 mg/kg/injection, schedule: Q01DX005 (ip), vehicle: saline) 173 % of control; (dose: 3.0 mg/kg/injection, schedule: Q01DX005 (ip), vehicle: saline) 176 % of control and 185 % of control; (dose: 6.0 mg/kg/injection, schedule: Q01DX005 (ip), vehicle: saline) 179 % of control and 204 % of control; (dose: 12.0 mg/kg/injection, schedule: Q01DX005 (ip), vehicle: saline) 203 % of control and 288 % of control.

With `O=C1CCS(=O)(=O)C(=O)N1c1ccccc1`, the T/C was 100 % of control under setting [9]; 97 % of control under setting [10]; 87 % of control (dose: 200.0 mg/kg/injection, schedule: Q01DX009 (ip), vehicle: Klucel (hydroxypropylcellulose) (HPC)).

In the case of `CCN(CC)CC.[CH-]1CCCCC1.[CH-]1CCCCC1.[CH-]1CCCCC1.[Cl-].[Cl-].[Sn+4]`, the T/C (dose: 3.12 mg/kg/injection, schedule: Q01DX005 (ip), vehicle: saline with Tween-80) is 107 % of control and the T/C (dose: 6.25 mg/kg/injection, schedule: Q01DX005 (ip), vehicle: saline with Tween-80) is 110 % of control.

For the compound `CCCOc1ccc(C(N)=S)cc1`, the T/C runs as follows: (dose: 12.5 mg/kg/injection, schedule: Q01DX009 (ip), vehicle: Klucel (hydroxypropylcellulose) (HPC)) 98 % of control and 103 % of control; (dose: 25.0 mg/kg/injection, schedule: Q01DX009 (ip), vehicle: Klucel (hydroxypropylcellulose) (HPC)) 101 % of control and 105 % of control; under setting [9], 115 % of control and 120 % of control and 96 % of control; under setting [10], 86 % of control.

On to `CC(C)(O)c1cc(=O)n(Cc2ccccc2)[nH]1`, for which the T/C reads like this: under setting [1], 106 % of control; under setting [2], 109 % of control; under setting [3], 108 % of control.

On to `CCN(CC)CCSCCCNc1cc(C)nc2c1ccc1c2ccc2c(NCCCSCCN(CC)CC)cc(C)nc21`, for which the T/C by setting is: (dose: 1.56 mg/kg/injection, schedule: Q01DX009 (ip), vehicle: distilled water + Tween-80) 100 % of control; (dose: 3.12 mg/kg/injection, schedule: Q01DX009 (ip), vehicle: distilled water + Tween-80) 102 % of control; (dose: 6.25 mg/kg/injection, schedule: Q01DX009 (ip), vehicle: distilled water + Tween-80) 104 % of control; (dose: 12.5 mg/kg/injection, schedule: Q01DX009 (ip), vehicle: distilled water + Tween-80) 100 % of control.

`C1=C(C2CCCC3[C@@H]4C[C@@H](CN23)C2CCCCN2C4)CCC2[C@H]3C[C@H](CN12)C1CCCCN1C3` (stereo partly drawn): the T/C reads like this: (dose: 3.75 mg/kg/injection, schedule: Q01DX005 (ip), vehicle: Klucel (hydroxypropylcellulose) (HPC)) 106 % of control; (dose: 7.5 mg/kg/injection, schedule: Q01DX005 (ip), vehicle: Klucel (hydroxypropylcellulose) (HPC)) 104 % of control; (dose: 15.0 mg/kg/injection, schedule: Q01DX005 (ip), vehicle: Klucel (hydroxypropylcellulose) (HPC)) 110 % of control and 96 % of control; (dose: 30.0 mg/kg/injection, schedule: Q01DX005 (ip), vehicle: Klucel (hydroxypropylcellulose) (HPC)) 100 % of control.

As to `COC(=O)CC[C@@H](C)C1CC[C@H]2[C@@H]3CC[C@H]4C=C(O)C(=O)C[C@]4(C)[C@H]3C[C@H](OC(C)=O)[C@]12C` (stereo partly drawn), the T/C is 102 % of control (dose: 100.0 mg/kg/injection, schedule: Q04DX002 (ip), vehicle: Klucel (hydroxypropylcellulose) (HPC)); 101 % of control (dose: 200.0 mg/kg/injection, schedule: Q04DX002 (ip), vehicle: Klucel (hydroxypropylcellulose) (HPC)); 108 % of control (dose: 400.0 mg/kg/injection, schedule: Q04DX002 (ip), vehicle: Klucel (hydroxypropylcellulose) (HPC)).

As to `CC(Cc1ccc(O)cc1)NCC(O)c1ccc(O)c(O)c1` (stereo not drawn), the T/C is 104 % of control under setting [4] and 109 % of control under setting [5].

In the case of `Nc1ccc2c(c1)C(O)c1cccc(C(=O)O)c1-2` (stereo not drawn), the T/C by setting is: under setting [6], 96 % of control; under setting [7], 101 % of control; under setting [8], 94 % of control.

As to `CCCCCCC(=O)/C=C/c1ccc(Br)cc1`, the T/C runs as follows: under setting [11], 104 % of control; under setting [12], 104 % of control; under setting [13], 97 % of control.

For `C/C=C\C=C/NC(=O)N1CCCC1`, the T/C under setting [6] was 113 % of control, the T/C under setting [7] is 118 % of control and the T/C under setting [8] was 116 % of control.

Turning to `CCOC(=O)NC(Cc1cc(OC)c(OC)cc1Br)c1ccc(OC)c(OC)c1` (stereo not drawn), the T/C is, setting by setting: under setting [11], 89 % of control; under setting [12], 89 % of control; under setting [13], 100 % of control.

For the compound `Cc1ccc(N(O)C(=O)c2ccccc2)c(C)c1`, the T/C is, setting by setting: under setting [11], 102 % of control and 98 % of control; under setting [12], 92 % of control and 93 % of control; under setting [13], 123 % of control and 98 % of control; (dose: 400.0 mg/kg/injection, schedule: Q01DX005 (ip), vehicle: saline with Tween-80) 111 % of control.
